Experimental data published in patent US20230285431A1, “Human Milk Oligosaccharide for Improving Health of Intestinal Microenvironment and Use Thereof” (Inner Mongolia Yili Industrial Group Co., Ltd., priority 2020, published 2023).
Entries after “also recorded” stand apart in the source; their conditions may differ.

Key:
Assay type in all cases: cell-based
[1] = tested on: infant fecal flora of the simulated distal colon; assay: Small batch fermentation with each HMO in simulated distal colon environment; conditions: for formic acid produced, distal colon / acetic acid produced, distal colon / butyric acid produced, distal colon / propionic acid produced, distal colon: 48 hours of fermentation; for formic acid produced, distal colon: FIG. 13; for acetic acid produced, distal colon: FIG. 14; for butyric acid produced, distal colon: FIG. 16; for total short chain fatty acids produced, distal colon: FIG. 12; for propionic acid produced, distal colon: FIG. 15; for production of isobutyric acid, distal colon / production of isovaleric acid, distal colon: small batch fermentation; for production of isobutyric acid, distal colon: FIG. 6A; for pH changes of the distal colon over time: starting pH 6.5, FIG. 3B; for production of isovaleric acid, distal colon: FIG. 6B
Excerpt: (§1) Using a SHIME device (see the schematic diagram in FIG. 1A), fresh fecal samples containing bacteria flora were obtained from a healthy infant naturally delivered and exclusively breastfed, and inoculated into containers corresponding to the proximal colon and distal colon. Food material was fed to the stomach/small intestine end of the device three times a day for two weeks to support the growth and colonization of the flora in the proximal colon and distal colon. Here, the food material that was digested by the small intestine and entered the colon was prepared on the basis of the standard food material provided by ProDigest, the manufacturer of the SHIME device, with adjustment to the ratio of lactose, casein and whey protein; the standard food material was composed of: pectin (1 g/L), glucose (1 g/L), starch (1 g/L), cellobiose (1 g/L), proteose peptone (2 g/L), mucin (6 g/L)), lactose (2.1 g/L), casein (0.2 g/L), whey-lactalbumin (2.7 g/L), L-cysteine hydrochloride (0.2 g/L). The ratio of lactose, casein and whey protein in the food materials in each experiment of the present disclosure was adjusted to about 12:1:15, with reference to Le Blay et al. (2010), and stable and balanced nutrients were maintained, so as to simulate the food composition to which the infant's intestinal microecology may be exposed during regular breastfeeding or infant formula feeding. After the infant fecal flora was stabilized in the SHIME model for two weeks, the proximal colon and distal colon were sampled, aliquoted in glycerol to form a stock solution, and stored under anaerobic conditions at −80° C.
After the infant flora was inoculated into the SHIME model and stably grown for 2 weeks (as described in the aforementioned “Fecal inoculation and culture in SHIME device”), 10 mL of the flora in the proximal colon and distal colon was taken and respectively transferred to fermentation flasks under anaerobic conditions for small batch fermentation. On the basis of 43 mL basal buffer (for adjusting pH and simulating the corresponding colonic environment), each fermentation flask also contained 20 mL PBS buffer (for dissolving and introducing the HMO test substance) supplemented with different amounts of HMOs, so that the final concentration of each HMO was 0.02 g/L, 0.2 g/L, or 2 g/L, the pH of the proximal colon was set to 5.6, and the pH of the distal colon was set to 6.5. The flasks were incubated at 37° C. with shaking. During incubation, the pressure was measured at 0, 6 hours, 24 hours and 48 hours, followed by sampling for detection of pH and short chain fatty acids. Measurements were repeated three times.
During the HMO intervention, the gas production in each group was compared by measuring changes in pressure. Short chain fatty acid analysis including isobutyric acid, isovaleric acid, butyric acid, propionic acid, acetic acid, and formic acid, were analyzed by HPLC.
(§2) A two-tailed, paired t-test was performed on the data results. When there is a significant difference between two groups, and p<0.05, it is indicated with an asterisk *. Two asterisks ** indicate p<0.01. Three asterisks *** indicate p<0.001.

[2] = tested on: infant fecal flora of the simulated distal colon (SHIME model); assay: SHIME fermentation with each HMO in simulated distal colon environment; conditions: for decrease ratio of butyric acid, Day 14 versus Day 1, compared to control without HMO: 14 days of fermentation; for Butyric acid, Log2 (day 14/day 1): HMO 2 g/L in feed, 14 days of HMO intervention, biological replicate 1
Excerpt: as §1
The infant fecal flora sampled and stored as in “Fecal inoculation and culture in SHIME device” was inoculated into the SLIME model to investigate the fermentation of HMOs in the SHIME device. Two batches of experiments were done sequentially, and three sample groups (or control) were simultaneously done in each batch of experiments. In three sets of experimental devices, the devices simulating the proximal colon and distal colon were inoculated separately (see the schematic diagram of FIG. 1B). Food material was fed three times a day, and after 4 days of incubation, an HMO was blended into the feed food material (no HMO was added to the control group). 280 mg of HMO (at a concentration of 2 g/L) and 60 mL of pancreatic juice were added into 140 mL of a stock solution for each food material. Only one experiment was performed for each set of HMO and control, so the biological replicate was 1. SHIME fermentation continued until Day 14 after the HMO intervention, and samples were taken for detection at different time periods during the fermentation period.
as §2

[3] = tested on: infant fecal flora of the simulated proximal colon; assay: Small batch fermentation with each HMO in simulated proximal colon environment; conditions: for formic acid produced, proximal colon: FIG. 8; for acetic acid produced, proximal colon: FIG. 9; for total short chain fatty acids produced, proximal colon: FIG. 7; for pressure changes (gas production) in the proximal colon: FIG. 4A
Excerpt: Using a SHIME device (see the schematic diagram in FIG. 1A), fresh fecal samples containing bacteria flora were obtained from a healthy infant naturally delivered and exclusively breastfed, and inoculated into containers corresponding to the proximal colon and distal colon. Food material was fed to the stomach/small intestine end of the device three times a day for two weeks to support the growth and colonization of the flora in the proximal colon and distal colon. Here, the food material that was digested by the small intestine and entered the colon was prepared on the basis of the standard food material provided by ProDigest, the manufacturer of the SHIME device, with adjustment to the ratio of lactose, casein and whey protein; the standard food material was composed of: pectin (1 g/L), glucose (1 g/L), starch (1 g/L), cellobiose (1 g/L), proteose peptone (2 g/L), mucin (6 g/L)), lactose (2.1 g/L), casein (0.2 g/L), whey-lactalbumin (2.7 g/L), L-cysteine hydrochloride (0.2 g/L). The ratio of lactose, casein and whey protein in the food materials in each experiment of the present disclosure was adjusted to about 12:1:15, with reference to Le Blay et al. (2010), and stable and balanced nutrients were maintained, so as to simulate the food composition to which the infant's intestinal microecology may be exposed during regular breastfeeding or infant formula feeding. After the infant fecal flora was stabilized in the SHIME model for two weeks, the proximal colon and distal colon were sampled, aliquoted in glycerol to form a stock solution, and stored under anaerobic conditions at −80° C. After the infant flora was inoculated into the SHIME model and stably grown for 2 weeks (as described in the aforementioned “Fecal inoculation and culture in SHIME device”), 10 mL of the flora in the proximal colon and distal colon was taken and respectively transferred to fermentation flasks under anaerobic conditions for small batch fermentation. On the basis of 43 mL basal buffer (for adjusting pH and simulating the corresponding colonic environment), each fermentation flask also contained 20 mL PBS buffer (for dissolving and introducing the HMO test substance) supplemented with different amounts of HMOs, so that the final concentration of each HMO was 0.02 g/L, 0.2 g/L, or 2 g/L, the pH of the proximal colon was set to 5.6, and the pH of the distal colon was set to 6.5. The flasks were incubated at 37° C. with shaking. During incubation, the pressure was measured at 0, 6 hours, 24 hours and 48 hours, followed by sampling for detection of pH and short chain fatty acids. Measurements were repeated three times. During the HMO intervention, the gas production in each group was compared by measuring changes in pressure. Short chain fatty acid analysis including isobutyric acid, isovaleric acid, butyric acid, propionic acid, acetic acid, and formic acid, were analyzed by HPLC. A two-tailed, paired t-test was performed on the data results. When there is a significant difference between two groups, and p<0.05, it is indicated with an asterisk *. Two asterisks ** indicate p<0.01. Three asterisks *** indicate p<0.001.

[4] = HMO 2 g/L, 48 hours of fermentation

Compound	formic acid produced, distal colon [1]	acetic acid produced, distal colon [1]	butyric acid produced, distal colon [1]	total short chain fatty acids produced, distal colon ([1]; HMO 2 g/L, 24 hours)	decrease ratio of butyric acid, Day 14 versus Day 1, compared to control without HMO [2]	Butyric acid, Log2 (day 14/day 1) [2]	formic acid produced, proximal colon ([3]; 48 hours of fermentation)	acetic acid produced, proximal colon ([3]; 48 hours of fermentation)	propionic acid produced, proximal colon ([3]; 48 hours of fermentation, FIG. 10)	butyric acid produced, proximal colon ([3]; 48 hours of fermentation, FIG. 11)	total short chain fatty acids produced, proximal colon [3, 4]	pressure changes (gas production) in the proximal colon ([3]; HMO 2 g/L)	propionic acid produced, distal colon [1]	total short chain fatty acids produced, distal colon ([1]; HMO 0.02 g/L, 6 hours)	production of isobutyric acid, distal colon [1]	total short chain fatty acids produced, proximal colon ([3]; HMO 2 g/L, 24 hours of fermentation)	pH changes of the distal colon over time ([1]; HMO 2 g/L)	production of isovaleric acid, distal colon [1]	pH changes over time ([1]; HMO 0.2 g/L, colon section not given)	pressure changes (gas production) in the proximal colon ([3]; HMO 0.2 g/L)
CC(=O)N[C@H]1[C@H]([C@H](O)[C@H](O)CO)O[C@@](OC[C@H]2O[C@@H](O[C@H]3[C@H](O)[C@@H](O)[C@H](O)O[C@@H]3CO)[C@H](O)[C@@H](O)[C@H]2O)(C(=O)O)C[C@@H]1O [6-SL, 6′-sialyl lactose]	more significant	more significant	significantly increased	relatively more short chain fatty acids	good improving effect compared to the control	−0.66	significantly increased; also recorded: more significant	significantly increased	significantly increased	significantly increase	significantly more SCFA	higher pressure								
CC(=O)N[C@H]1[C@H]([C@H](O)[C@H](O)CO)O[C@@](O[C@H]2[C@@H](O)[C@@H](CO)O[C@@H](O[C@H]3[C@H](O)[C@@H](O)C(O)O[C@@H]3CO)[C@@H]2O)(C(=O)O)C[C@@H]1O (stereo partly drawn) [3-SL, 3′-sialyl lactose]	more significant	more significant	significantly increased		the smallest	−0.13	significantly increased	significantly increased; also recorded: more significant			significantly more SCFA	higher pressure	more significant	relatively more short chain fatty acids	significantly reduce	produces more SCFA				
3-fucosyllactose [3-FL]	more significant			relatively more short chain fatty acids		−0.33							more significant		significantly reduce		tend to significantly lower the pH	significantly reduce		
CC(=O)N[C@H]1[C@H](O[C@H]2[C@@H](O)[C@@H](CO)O[C@@H](O[C@H]3[C@H](O)[C@@H](O)C(O)O[C@@H]3CO)[C@@H]2O)O[C@H](CO)[C@@H](O)[C@@H]1O[C@@H]1O[C@H](CO)[C@H](O)[C@H](O)[C@H]1O (stereo partly drawn) [LNT, Lacto-N-tetraose]	more significant	more significant			good improving effect compared to the control	−0.70								relatively more short chain fatty acids	significantly reduce				tends to better lower the pH	tends to produce gas better
2′-fucosyllactose [2′-FL]					good improving effect compared to the control	−0.67									significantly reduce		tend to significantly lower the pH	most potent; also recorded: significantly reduce		
